Source: ChEMBL document CHEMBL1212749, “In vitro activity of mirincamycin (U24729A) against Plasmodium falciparum isolates from Gabon” (Antimicrob Agents Chemother, 2010)

What was measured:
[1] = test system: Plasmodium falciparum; assay: Ratio of IC50 for Plasmodium falciparum 3D7A after 6 days to IC50 for Plasmodium falciparum 3D7A after 3 days by HRP2 enzyme-linked immunosorbent assay; type: functional
[2] = test system: Plasmodium falciparum; assay: Antimalarial activity against Plasmodium falciparum clinical isolate after 6 days by HRP2 enzyme-linked immunosorbent assay; type: functional, organism-based; conditions: 144 h

IC50 [2] [nM] | Compound | Ratio IC50 [1]
– | CCCCCC1CN[C@@H](C(=O)N[C@H]([C@H]2O[C@H](SC)[C@H](O)[C@@H](O)[C@H]2O)[C@@H](C)Cl)C1 (stereo partly drawn) | > 10000
11.6 | CCC[C@@H]1C[C@@H](C(=O)N[C@@H]([C@H]2O[C@H](SC)[C@H](O)[C@@H](O)[C@H]2O)[C@H](C)Cl)N(C)C1 [CLINDAMYCIN] | –
720 | C[C@H]1c2cccc(O)c2C(=O)C2=C(O)[C@]3(O)C(=O)C(C(N)=O)=C(O)[C@@H](N(C)C)[C@@H]3[C@@H](O)[C@@H]21 [DOXYCYCLINE] | –
